Data from US9556179B2 (BRISTOL-MYERS SQUIBB COMPANY, priority 2012, dated 2017).

What was measured:
CK1ε = CK1ε (Homo sapiens (Human), UniProt P49674); experiment: CK1ε kinase assay (Caliper LABCHIP electrophoretic separation of fluoresceinated peptide substrate and product); assay type: biochemical; conditions: 200 pM enzyme, 50 μM ATP, 22 hours at room temperature
Method in brief: (§1)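 Each reaction was incubated 22 hours at room temperature and terminated with EDTA. Read-out was microfluidic electrophoretic separation of fluoresceinated substrate and phospho-product.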

CK1δ = CK1δ (Homo sapiens (Human), UniProt P48730); experiment: CK1δ kinase assay (Caliper LABCHIP electrophoretic separation of fluoresceinated peptide substrate and product); assay type: biochemical; conditions: 200 pM enzyme, 50 μM ATP, 22 hours at room temperature
CK1δ, sequence (P48730 whole entry): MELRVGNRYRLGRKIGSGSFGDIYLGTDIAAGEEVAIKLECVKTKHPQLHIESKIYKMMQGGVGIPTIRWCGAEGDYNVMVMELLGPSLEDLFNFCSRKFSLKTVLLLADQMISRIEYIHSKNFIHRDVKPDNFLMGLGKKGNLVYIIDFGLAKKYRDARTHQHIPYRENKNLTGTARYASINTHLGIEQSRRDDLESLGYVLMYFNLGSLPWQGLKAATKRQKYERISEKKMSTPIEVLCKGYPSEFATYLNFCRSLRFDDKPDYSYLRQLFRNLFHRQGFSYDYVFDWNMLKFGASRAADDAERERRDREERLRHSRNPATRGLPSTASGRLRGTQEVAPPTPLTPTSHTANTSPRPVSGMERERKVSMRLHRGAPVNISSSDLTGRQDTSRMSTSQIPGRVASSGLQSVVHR
Method in brief: as §1

CK1ε, sequence (P49674 whole entry): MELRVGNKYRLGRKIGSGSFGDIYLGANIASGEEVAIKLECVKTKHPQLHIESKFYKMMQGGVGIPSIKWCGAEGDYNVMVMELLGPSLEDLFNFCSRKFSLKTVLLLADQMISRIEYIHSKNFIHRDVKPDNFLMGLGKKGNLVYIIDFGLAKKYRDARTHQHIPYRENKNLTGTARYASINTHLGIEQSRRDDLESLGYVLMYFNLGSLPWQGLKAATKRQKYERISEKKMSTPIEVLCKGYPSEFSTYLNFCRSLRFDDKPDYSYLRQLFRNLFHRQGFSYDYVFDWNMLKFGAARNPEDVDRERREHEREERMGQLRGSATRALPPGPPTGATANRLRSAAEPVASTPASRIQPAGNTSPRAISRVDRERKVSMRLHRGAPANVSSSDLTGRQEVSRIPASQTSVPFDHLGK

| Structure (SMILES) | IC50 (CK1ε) [nM] | IC50 (CK1δ) [nM] |
| --- | --- | --- |
| N#CCCN1CCC(n2c(C3CC3)nc(-c3ccc(F)cc3)c2-c2ccc3nc(NC(=O)c4ccnc(F)c4)cn3n2)CC1 [Compound 122, N-(6-(1-(1-(2-cyanoethyl)piperidin-4-yl)-2-cyclopropyl-4-(4-fluorophenyl)-1H-imidazol-5-yl)imidazo[1,2-b]pyridazin-2-yl)-2-fluoroisonicotinamide] | 2.86 | 0.446 |
| O=C(Nc1cn2nc(-c3c(-c4ccc(F)cc4)nc(C4CC4)n3C3CCN(c4ccncc4)CC3)ccc2n1)c1ccnc(F)c1 [Compound 123, N-(6-(2-cyclopropyl-4-(4-fluorophenyl)-1-(1-(pyridin-4-yl)piperidin-4-yl)-1H-imidazol-5-yl)imidazo[1,2-b]pyridazin-2-yl)-2-fluoroisonicotinamide] | 16.7 | 2.86 |
| O=C(Nc1cn2nc(-c3c(-c4ccc(F)cc4)nc(C4CC4)n3C3CCN(S(=O)(=O)C4CC4)CC3)ccc2n1)c1ccnc(F)c1 [Compound 124, N-(6-(2-cyclopropyl-1-(1-(cyclopropylsulfonyl)piperidin-4-yl)-4-(4-fluorophenyl)-1H-imidazol-5-yl)imidazo[1,2-b]pyridazin-2-yl)-2-fluoroisonicotinamide] | 27.1 | 3.72 |
| O=C(Nc1cn2nc(-c3c(-c4ccc(F)cc4)nc(C4CC4)n3C3CCN(C(=O)Nc4ccncc4)CC3)ccc2n1)c1ccnc(F)c1 [Compound 125, N-(6-(2-cyclopropyl-4-(4-fluorophenyl)-1-(1-(pyridin-4-ylcarbamoyl)piperidin-4-yl)-1H-imidazol-5-yl)imidazo[1,2-b]pyridazin-2-yl)-2-fluoroisonicotinamide] | 6.03 | 0.95 |
| O=C(Nc1cn2nc(-c3c(-c4ccc(F)cc4)nc(C4CC4)n3C3CCN(C(=O)c4ccon4)CC3)ccc2n1)c1ccnc(F)c1 [Compound 126, N-(6-(2-cyclopropyl-4-(4-fluorophenyl)-1-(1-(isoxazole-3-carbonyl)piperidin-4-yl)-1H-imidazol-5-yl)imidazo[1,2-b]pyridazin-2-yl)-2-fluoroisonicotinamide] | 9.02 | 1.66 |
| O=C(Nc1cn2nc(-c3c(-c4ccc(F)cc4)nc(C4CC4)n3C3CCN(C(=O)CC(F)(F)F)CC3)ccc2n1)c1ccnc(F)c1 [Compound 127, N-(6-(2-cyclopropyl-4-(4-fluorophenyl)-1-(1-(3,3,3-trifluoropropanoyl)piperidin-4-yl)-1H-imidazol-5-yl)imidazo [1,2-b]pyridazin-2-yl)-2-fluoroisonicotinamide] | 10.1 | 1.75 |
| O=C(Nc1cn2nc(-c3c(-c4ccc(F)cc4)nc(C4CC4)n3C3CCN(Cc4ccon4)CC3)ccc2n1)c1ccnc(F)c1 [Compound 128, N-(6-(2-cyclopropyl-4-(4-fluorophenyl)-1-(1-(isoxazol-3-ylmethyl)piperidin-4-yl)-1H-imidazol-5-yl)imidazo[1,2-b]pyridazin-2-yl)-2-fluoroisonicotinamide] | 6.41 | 0.301 |
| Cn1nccc1CN1CCC(n2c(C3CC3)nc(-c3ccc(F)cc3)c2-c2ccc3nc(NC(=O)c4ccnc(F)c4)cn3n2)CC1 [Compound 129, N-(6-(2-cyclopropyl-4-(4-fluorophenyl)-1-(1-((1-methyl-1H-pyrazol-5-yl)methyl)piperidin-4-yl)-1H-imidazol-5-yl)imidazo[1,2-b]pyridazin-2-yl)-2-fluoroisonicotinamide] | 19.1 | 2.28 |
| O=C(Nc1cn2nc(-c3c(-c4ccc(F)cc4)nc(C4CC4)n3C3CCN(CCC(F)(F)F)CC3)ccc2n1)c1ccnc(F)c1 [Compound 130, N-(6-(2-cyclopropyl-4-(4-fluorophenyl)-1-(1-(3,3,3-trifluoropropyl)piperidin-4-yl)-1H-imidazol-5-yl)imidazo [1,2-b]pyridazin-2-yl)-2-fluoroisonicotinamide] | 53.3 | 3.32 |
| O=C(Nc1cn2nc(-c3c(-c4ccc(F)cc4)nc(C4CC4)n3C3CCN(Cc4ccncc4)CC3)ccc2n1)c1ccnc(F)c1 [Compound 131, N-(6-(2-cyclopropyl-4-(4-fluorophenyl)-1-(1-(pyridin-4-ylmethyl)piperidin-4-yl)-1H-imidazol-5-yl)imidazo [1,2-b]pyridazin-2-yl)-2-fluoroisonicotinamide] | 20.7 | 1.97 |
| O=C(Nc1cn2nc(-c3c(-c4ccc(F)cc4)nc(C4CC4)n3C3CCN(C4COC4)CC3)ccc2n1)c1ccnc(F)c1 [Compound 132, N-(6-(2-cyclopropyl-4-(4-fluorophenyl)-1-(1-(oxetan-3-yl)piperidin-4-yl)-1H-imidazol-5-yl)imidazo[1,2-b]pyridazin-2-yl)-2-fluoroisonicotinamide] | 14.2 | 1.7 |
| O=C(Nc1cn2nc(-c3c(-c4ccc(F)cc4)nc(C4CC4)n3C3CCN(Cc4ccno4)CC3)ccc2n1)c1ccnc(F)c1 [Compound 133, N-(6-(2-cyclopropyl-4-(4-fluorophenyl)-1-(1-(isoxazol-5-ylmethyl)piperidin-4-yl)-1H-imidazol-5-yl)imidazo [1,2-b]pyridazin-2-yl)-2-fluoroisonicotinamide] | 13.1 | 0.907 |
| O=C(Nc1cn2nc(-c3c(-c4ccc(F)cc4)nc(C4CC4)n3C3CCN(CCN4CCOCC4)CC3)ccc2n1)c1ccnc(F)c1 [Compound 134] | 7.83 | 0.542 |
| O=C(Nc1cn2nc(-c3c(-c4ccc(F)cc4)nc(C4CC4)n3C3CCNCC3)ccc2n1)c1cccc(-c2cccnc2)c1 [Compound 135, N-(6-(2-cyclopropyl-4-(4-fluorophenyl)-1-(piperidin-4-yl)-1H-imidazol-5-yl)imidazo[1,2-b]pyridazin-2-yl)-3-(pyridin-3-yl)benzamide] | 2.6 | 0.745 |
| N#CCCN1CCC(n2c(C3CC3)nc(-c3ccc(F)cc3)c2-c2ccc3nc(NC(=O)c4cccc(-c5cccnc5)c4)cn3n2)CC1 [Compound 136, N-(6-(1-(1-(2-cyanoethyl)piperidin-4-yl)-2-cyclopropyl-4-(4-fluorophenyl)-1H-imidazol-5-yl)imidazo[1,2-b]pyridazin-2-yl)-3-(pyridin-3-yl)benzamide] | 8.9 | 0.514 |
| NCC(=O)N1CCC(n2c(C3CC3)nc(-c3ccc(F)cc3)c2-c2ccc3nc(NC(=O)c4cccc(-c5cccnc5)c4)cn3n2)CC1 [Compound 137, N-(6-(1-(1-(2-aminoacetyl)piperidin-4-yl)-2-cyclopropyl-4-(4-fluorophenyl)-1H-imidazol-5-yl)imidazo[1,2-b]pyridazin-2-yl)-3-(pyridin-3-yl)benzamide] | 5.78 | 0.203 |
| O=C(Nc1cn2nc(-c3c(-c4ccc(F)cc4)nc(C4CC4)n3C3CCN(Cc4ccon4)CC3)ccc2n1)c1cccc(-c2cccnc2)c1 [Compound 138, N-(6-(2-cyclopropyl-4-(4-fluorophenyl)-1-(1-(isoxazol-3-ylmethyl)piperidin-4-yl)-1H-imidazol-5-yl)imidazo[1,2-b]pyridazin-2-yl)-3-(pyridin-3-yl)benzamide] | 11 | 1.56 |
| Cc1nc(-c2ccc(F)cc2)c(-c2ccc3nc(NC(=O)c4ccnc(F)c4)cn3n2)n1C1CCN(CCCF)CC1 [Compound 140, 2-fluoro-N-(6-(4-(4-fluorophenyl)-1-(1-(3-fluoropropyl)piperidin-4-yl)-2-methyl-1H-imidazol-5-yl)imidazo[1,2-b]pyridazin-2-yl)isonicotinamide] | 22.2 | 2.29 |
| COCCN1CCC(n2c(C)nc(-c3ccc(F)cc3)c2-c2ccc3nc(NC(=O)c4ccnc(F)c4)cn3n2)CC1 [Compound 141, 2-fluoro-N-(6-(4-(4-fluorophenyl)-1-(1-(2-methoxyethyl)piperidin-4-yl)-2-methyl-1H-imidazol-5-yl)imidazo [1,2-b]pyridazin-2-yl) isonicotinamide] | 16 | 1.03 |
| Cc1nc(-c2ccc(F)cc2)c(-c2ccc3nc(NC(=O)c4ccnc(F)c4)cn3n2)n1C1CCN(C[C@@H](O)C(F)(F)F)CC1 [Compound 142, (R)-2-fluoro-N-(6-(4-(4-fluorophenyl)-2-methyl-1-(1-(3,3,3-trifluoro-2-hydroxypropyl)piperidin-4-yl)-1H-imidazol-5-yl)imidazo[1,2-b]pyridazin-2-yl)isonicotinamide] | 2.55 | 0.414 |
| Cc1nc(-c2ccc(F)cc2)c(-c2ccc3nc(NC(=O)c4ccnc(F)c4)cn3n2)n1C1CCN(C[C@H](O)C(F)(F)F)CC1 [Compound 143, (S)-2-fluoro-N-(6-(4-(4-fluorophenyl)-2-methyl-1-(1-(3,3,3-trifluoro-2-hydroxypropyl)piperidin-4-yl)-1H-imidazol-5-yl)imidazo [1,2-b]pyridazin-2-yl)isonicotinamide] | 0.656 | 0.112 |
| Cc1nc(-c2ccc(F)cc2)c(-c2ccc3nc(NC(=O)c4ccnc(F)c4)cn3n2)n1C1CCN(CCC#N)CC1 [Compound 144, N-(6-(1-(1-(2-cyanoethyl)piperidin-4-yl)-4-(4-fluorophenyl)-2-methyl-1H-imidazol-5-yl)imidazo[1,2-b]pyridazin-2-yl)-2-fluoroisonicotinamide] | 1.55 | 0.254 |
| Cc1nc(-c2ccc(F)cc2)c(-c2ccc3nc(NC(=O)c4ccnc(F)c4)cn3n2)n1C1CCN(CCC(F)(F)F)CC1 [Compound 145, 2-fluoro-N-(6-(4-(4-fluorophenyl)-2-methyl-1-(1-(3,3,3-trifluoropropyl)piperidin-4-yl)-1H-imidazol-5-yl)imidazo[1,2-b]pyridazin-2-yl)isonicotinamide] | 9.51 | 0.962 |
| Cc1nc(-c2ccc(F)cc2)c(-c2ccc3nc(NC(=O)c4ccnc(F)c4)cn3n2)n1C1CCN(CCCC(F)(F)F)CC1 [Compound 146, 2-fluoro-N-(6-(4-(4-fluorophenyl)-2-methyl-1-(1-(4,4,4-trifluorobutyl)piperidin-4-yl)-1H-imidazol-5-yl)imidazo[1,2-b]pyridazin-2-yl)isonicotinamide] | 24.8 | 2.24 |
